The values below come from US20240158391A1, “DERIVATIVES OF 4-(IMIDAZO[1,2-A]PYRIDIN-3-YL)-N-(PYRIDIN-3-YL) PYRIMIDIN-2- AMINE FOR TREATING PROLIFERATIVE DISEASES AND CONDITIONS” (AUCENTRA THERAPEUTICS PTY LTD, priority 2019, published 2024).

The target in one assay is CDK1/CyclinB (Homo sapiens, UniProt P06493). As to the kind of experiment: ADP Glo kinase assay, CDK1/CyclinB. The class given is biochemical. Particulars: compound at 1 μM, read-out: Residual enzymatic activity (%) at 1 μM, CDK1 B. The procedure, abridged:
(§1)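 First, compounds are diluted 1:3 across ten points from 10 to 0.0005 μM in 0.5% DMSO. Next, kinase reactions run at room temperature for an optimised period. Finally, ADP Glo reagent is added to stop them.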

The target in another assay is CDK7/CyclinH/Mat1 (Homo sapiens, UniProt P50613). As to the kind of experiment: ADP Glo kinase assay, CDK7/CyclinH/Mat1. Particulars: compound at 1 μM, read-out: Residual enzymatic activity (%) at 1 μM, CDK7 H. The class given is biochemical. In a few lines:
as §1
On the technique in general: ADP-Glo first removes unused ATP, then detects ADP through luciferase.

Another assay deals with CDK4/CyclinD1 (Homo sapiens, UniProt P11802). Nature of the assay: ADP Glo kinase assay, CDK4/CyclinD1. The class given is biochemical. The note with it: compound at 1 μM, read-out: Residual enzymatic activity (%) at 1 μM, CDK4 D1. The procedure, abridged: as §1
The target in the next assay is T1, FLT3-ITD (Homo sapiens, UniProt P36888).
T1 sequence (P36888 1-993): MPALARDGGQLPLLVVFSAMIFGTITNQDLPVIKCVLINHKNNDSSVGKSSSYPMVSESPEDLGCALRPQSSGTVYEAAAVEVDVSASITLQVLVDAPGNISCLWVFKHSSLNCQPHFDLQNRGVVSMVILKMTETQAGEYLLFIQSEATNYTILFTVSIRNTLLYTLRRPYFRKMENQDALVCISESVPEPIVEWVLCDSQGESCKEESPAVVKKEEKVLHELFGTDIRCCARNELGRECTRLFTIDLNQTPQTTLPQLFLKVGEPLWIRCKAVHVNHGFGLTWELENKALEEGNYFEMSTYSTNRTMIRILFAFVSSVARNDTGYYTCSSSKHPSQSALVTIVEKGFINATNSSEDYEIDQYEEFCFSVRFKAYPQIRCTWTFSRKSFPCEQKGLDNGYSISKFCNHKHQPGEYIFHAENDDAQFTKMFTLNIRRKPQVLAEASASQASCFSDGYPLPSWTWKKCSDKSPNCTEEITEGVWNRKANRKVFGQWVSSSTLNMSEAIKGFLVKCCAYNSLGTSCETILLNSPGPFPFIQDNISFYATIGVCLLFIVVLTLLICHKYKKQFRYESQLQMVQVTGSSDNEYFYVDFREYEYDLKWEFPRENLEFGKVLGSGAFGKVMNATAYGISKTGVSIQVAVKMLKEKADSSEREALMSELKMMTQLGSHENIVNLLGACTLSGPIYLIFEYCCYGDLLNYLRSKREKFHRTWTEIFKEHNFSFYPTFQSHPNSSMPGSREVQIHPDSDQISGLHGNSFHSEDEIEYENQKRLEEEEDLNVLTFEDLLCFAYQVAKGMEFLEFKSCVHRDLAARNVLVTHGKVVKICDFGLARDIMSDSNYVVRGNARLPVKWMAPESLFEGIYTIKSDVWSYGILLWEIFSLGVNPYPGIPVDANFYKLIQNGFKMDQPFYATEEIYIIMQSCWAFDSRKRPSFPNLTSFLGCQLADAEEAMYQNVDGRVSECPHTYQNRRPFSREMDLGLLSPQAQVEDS
Nature of the assay: ADP Glo kinase assay, FLT3-ITD. The class given is biochemical. The note with it: Km ATP 100 μM, read-out: Enzymatic inhibition, Ki, FLT3-ITD. The procedure, abridged:
as §1

Another assay concerns the target CDK2/CyclinA2 (Homo sapiens, UniProt P24941). Nature of the assay: ADP Glo kinase assay, CDK2/CyclinA2. The class given is biochemical. The note with it: for remaining activity at 1 µM: compound at 1 μM, read-out: Residual enzymatic activity (%) at 1 μM, CDK2 A. In a few lines: as §1
The next assay addresses CDK6/CyclinD3 (Homo sapiens, UniProt Q00534). Nature of the assay: ADP Glo kinase assay, CDK6/CyclinD3. The class given is biochemical. The note with it: for remaining activity at 1 µM: compound at 1 μM, read-out: Residual enzymatic activity (%) at 1 μM, CDK6 D3. The procedure, abridged:
as §1

A further assay has as its system MV-4-11. Nature of the assay: Proliferation assay (resazurin, leukemia cell lines), MV-4-11. The class given is cell-based. The note with it: Homo sapiens, MV4-11, read-out: 72 h Growth inhibition GI50, MV-4-11 cells. An excerpt: The following compounds were used as comparators.
In a further assay the target is CDK9/CyclinT1 (Homo sapiens, UniProt P50750). Nature of the assay: ADP Glo kinase assay, CDK9/CyclinT1. The format is biochemical. The note with it: CDK9/CyclinT1; Km ATP; read-out: Enzymatic inhibition, Ki, CDK9 T1. In a few lines: as §1

pKi: −log10 of the molar value.

Sequence of CDK7/CyclinH/Mat1 (P50613 whole entry, species assumed): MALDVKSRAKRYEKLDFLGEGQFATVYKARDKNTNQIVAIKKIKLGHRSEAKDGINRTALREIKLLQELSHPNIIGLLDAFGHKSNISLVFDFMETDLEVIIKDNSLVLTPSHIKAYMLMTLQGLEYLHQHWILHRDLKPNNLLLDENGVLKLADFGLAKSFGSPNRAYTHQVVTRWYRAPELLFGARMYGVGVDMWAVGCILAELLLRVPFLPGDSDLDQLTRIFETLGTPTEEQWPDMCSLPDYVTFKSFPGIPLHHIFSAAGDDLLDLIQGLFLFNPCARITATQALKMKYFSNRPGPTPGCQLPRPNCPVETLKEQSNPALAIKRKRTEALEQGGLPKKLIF
Sequence of CDK7/CyclinH/Mat1 (P51946 whole entry partner, species assumed): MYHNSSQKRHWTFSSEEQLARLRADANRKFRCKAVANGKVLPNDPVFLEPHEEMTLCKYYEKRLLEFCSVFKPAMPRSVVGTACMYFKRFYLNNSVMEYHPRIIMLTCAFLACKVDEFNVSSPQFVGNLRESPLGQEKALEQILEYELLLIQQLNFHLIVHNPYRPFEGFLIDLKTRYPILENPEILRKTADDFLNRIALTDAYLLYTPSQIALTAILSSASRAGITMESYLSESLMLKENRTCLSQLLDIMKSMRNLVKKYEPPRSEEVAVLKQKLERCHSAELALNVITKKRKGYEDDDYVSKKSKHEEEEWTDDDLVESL
Sequence of CDK7/CyclinH/Mat1 (P51948 whole entry partner, species assumed): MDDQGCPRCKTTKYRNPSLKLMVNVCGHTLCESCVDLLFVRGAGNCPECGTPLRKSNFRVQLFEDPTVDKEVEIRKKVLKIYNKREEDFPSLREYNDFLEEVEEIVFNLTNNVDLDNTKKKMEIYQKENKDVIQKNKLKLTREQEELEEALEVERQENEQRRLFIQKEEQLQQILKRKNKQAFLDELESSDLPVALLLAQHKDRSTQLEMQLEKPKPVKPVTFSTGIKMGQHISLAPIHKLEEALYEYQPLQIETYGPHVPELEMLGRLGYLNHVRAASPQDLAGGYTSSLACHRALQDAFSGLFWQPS
Sequence of CDK9/CyclinT1 (P50750 whole entry, species assumed): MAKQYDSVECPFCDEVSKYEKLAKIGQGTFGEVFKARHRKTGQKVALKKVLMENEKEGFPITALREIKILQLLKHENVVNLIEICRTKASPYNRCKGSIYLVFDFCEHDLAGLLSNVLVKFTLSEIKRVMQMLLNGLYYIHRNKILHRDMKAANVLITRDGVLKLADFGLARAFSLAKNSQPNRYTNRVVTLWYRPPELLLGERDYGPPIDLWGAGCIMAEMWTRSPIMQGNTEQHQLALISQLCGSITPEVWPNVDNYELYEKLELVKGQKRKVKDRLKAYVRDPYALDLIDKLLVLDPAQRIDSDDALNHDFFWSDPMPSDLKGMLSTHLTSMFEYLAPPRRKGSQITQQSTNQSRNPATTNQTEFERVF
Sequence of CDK9/CyclinT1 (O60563 whole entry partner, species assumed): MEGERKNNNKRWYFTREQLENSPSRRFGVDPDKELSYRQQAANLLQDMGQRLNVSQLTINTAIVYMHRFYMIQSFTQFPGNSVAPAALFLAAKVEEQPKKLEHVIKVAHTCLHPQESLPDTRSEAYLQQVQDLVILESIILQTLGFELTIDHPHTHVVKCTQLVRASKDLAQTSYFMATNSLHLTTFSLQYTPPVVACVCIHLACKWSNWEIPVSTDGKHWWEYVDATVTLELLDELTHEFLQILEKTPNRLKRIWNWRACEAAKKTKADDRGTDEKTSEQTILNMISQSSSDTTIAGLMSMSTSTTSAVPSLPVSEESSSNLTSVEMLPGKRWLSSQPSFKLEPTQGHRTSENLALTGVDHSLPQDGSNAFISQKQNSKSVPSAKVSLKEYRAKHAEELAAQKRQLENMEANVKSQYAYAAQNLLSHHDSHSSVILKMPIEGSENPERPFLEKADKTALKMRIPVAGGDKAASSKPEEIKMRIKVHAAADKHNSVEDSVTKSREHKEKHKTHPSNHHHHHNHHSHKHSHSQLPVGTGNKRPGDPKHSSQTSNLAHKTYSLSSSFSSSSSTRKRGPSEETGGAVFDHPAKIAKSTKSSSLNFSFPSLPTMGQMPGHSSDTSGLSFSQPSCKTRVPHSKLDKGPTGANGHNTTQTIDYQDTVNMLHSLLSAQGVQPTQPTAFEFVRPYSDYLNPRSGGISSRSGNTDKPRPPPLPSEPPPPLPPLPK
Sequence of CDK1/CyclinB (P06493 whole entry, species assumed): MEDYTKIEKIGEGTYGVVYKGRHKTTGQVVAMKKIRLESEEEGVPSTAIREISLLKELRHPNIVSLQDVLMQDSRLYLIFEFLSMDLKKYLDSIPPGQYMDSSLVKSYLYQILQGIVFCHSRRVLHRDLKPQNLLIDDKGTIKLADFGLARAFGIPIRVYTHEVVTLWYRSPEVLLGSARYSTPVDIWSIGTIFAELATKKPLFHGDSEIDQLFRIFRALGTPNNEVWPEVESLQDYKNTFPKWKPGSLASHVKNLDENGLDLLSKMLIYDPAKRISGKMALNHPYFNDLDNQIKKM
Sequence of CDK1/CyclinB (P14635 whole entry partner, species assumed): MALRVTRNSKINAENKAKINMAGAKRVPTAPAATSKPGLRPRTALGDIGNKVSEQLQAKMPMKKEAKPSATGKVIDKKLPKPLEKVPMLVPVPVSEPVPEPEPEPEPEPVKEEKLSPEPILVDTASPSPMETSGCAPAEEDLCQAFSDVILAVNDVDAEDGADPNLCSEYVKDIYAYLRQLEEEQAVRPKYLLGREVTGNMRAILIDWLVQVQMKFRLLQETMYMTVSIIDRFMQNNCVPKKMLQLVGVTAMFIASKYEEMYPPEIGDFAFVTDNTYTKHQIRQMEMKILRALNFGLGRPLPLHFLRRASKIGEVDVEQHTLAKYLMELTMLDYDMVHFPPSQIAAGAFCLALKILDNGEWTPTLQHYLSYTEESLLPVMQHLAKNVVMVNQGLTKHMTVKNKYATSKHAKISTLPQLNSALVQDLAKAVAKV
Sequence of CDK4/CyclinD1 (P11802 whole entry, species assumed): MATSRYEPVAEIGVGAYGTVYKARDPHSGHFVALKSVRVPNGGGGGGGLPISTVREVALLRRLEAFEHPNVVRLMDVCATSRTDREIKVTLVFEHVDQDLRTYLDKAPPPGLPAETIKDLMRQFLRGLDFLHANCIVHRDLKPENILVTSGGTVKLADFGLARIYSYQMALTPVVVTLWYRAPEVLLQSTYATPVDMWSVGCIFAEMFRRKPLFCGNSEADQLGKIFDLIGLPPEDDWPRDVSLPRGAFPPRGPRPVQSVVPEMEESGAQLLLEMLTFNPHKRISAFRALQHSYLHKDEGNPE
Sequence of CDK4/CyclinD1 (P24385 whole entry partner, species assumed): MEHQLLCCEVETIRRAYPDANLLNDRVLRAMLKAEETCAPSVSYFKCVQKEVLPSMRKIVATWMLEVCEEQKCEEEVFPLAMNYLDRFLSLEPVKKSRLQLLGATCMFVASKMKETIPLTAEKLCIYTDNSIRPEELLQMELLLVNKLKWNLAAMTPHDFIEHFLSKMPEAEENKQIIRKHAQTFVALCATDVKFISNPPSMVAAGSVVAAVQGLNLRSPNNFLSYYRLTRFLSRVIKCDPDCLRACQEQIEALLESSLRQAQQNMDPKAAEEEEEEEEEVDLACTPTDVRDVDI
Sequence of CDK6/CyclinD3 (Q00534 whole entry, species assumed): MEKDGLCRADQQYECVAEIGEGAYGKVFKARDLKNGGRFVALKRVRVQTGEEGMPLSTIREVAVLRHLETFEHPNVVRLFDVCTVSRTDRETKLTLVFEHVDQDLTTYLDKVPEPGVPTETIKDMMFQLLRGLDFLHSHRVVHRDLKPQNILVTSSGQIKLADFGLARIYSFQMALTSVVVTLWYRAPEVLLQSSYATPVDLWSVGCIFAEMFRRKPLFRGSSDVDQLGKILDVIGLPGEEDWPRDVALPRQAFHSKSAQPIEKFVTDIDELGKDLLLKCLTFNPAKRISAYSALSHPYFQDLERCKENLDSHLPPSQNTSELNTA
Sequence of CDK6/CyclinD3 (P30281 whole entry partner, species assumed): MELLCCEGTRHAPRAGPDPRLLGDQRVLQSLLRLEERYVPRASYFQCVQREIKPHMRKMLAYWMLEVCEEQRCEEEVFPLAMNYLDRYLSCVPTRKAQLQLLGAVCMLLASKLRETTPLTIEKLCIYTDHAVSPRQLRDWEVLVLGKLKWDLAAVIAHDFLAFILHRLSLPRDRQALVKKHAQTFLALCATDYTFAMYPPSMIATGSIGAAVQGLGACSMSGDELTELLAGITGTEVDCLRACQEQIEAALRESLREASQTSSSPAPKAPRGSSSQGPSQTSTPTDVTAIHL

In the case of `COc1ccc(-c2ccc3ncc(-c4ccnc(Nc5ccc(N6CCN(C(C)=O)CC6)nc5)n4)n3c2)cn1` [Compound 48, 1-(4-(5-((4-(6-(6-Methoxypyridin-3-yl)imidazo[1,2-a]pyridin-3-yl)pyrimidin-2-yl)amino)pyridin-2-yl)piperazin-1-yl)ethan-1-one], the remaining activity at 1 µM at CDK1/CyclinB is 58%; at CDK7/CyclinH/Mat1, 75%; at CDK4/CyclinD1, 86%; on CDK2/CyclinA2, 34%; at CDK6/CyclinD3 it was 30%. The pKi on FLT3-ITD was 7.07; at CDK9/CyclinT1 it was 6.56. Moreover, in the assay on MV-4-11, the GI50 amounted to 18 nM.

For the molecule `CC(=O)N1CCN(c2ccc(Nc3nccc(-c4cnc5ccc(-c6cccc7[nH]ccc67)cn45)n3)cn2)CC1` [Compound 49, 1-(4-(5-((4-(6-(1H-Indol-4-yl)imidazo[1,2-a]pyridin-3-yl)pyrimidin-2-yl)amino)pyridin-2-yl)piperazin-1-yl)ethan-1-one], the remaining activity at 1 µM on CDK1/CyclinB is 94%; at CDK7/CyclinH/Mat1, 81%; at CDK4/CyclinD1 it was 92%; on CDK2/CyclinA2, 51%; at CDK6/CyclinD3, 38%. For the same molecule, the pKi is under 6.30 at FLT3-ITD and 6.77 at CDK9/CyclinT1. Also, the GI50 in the assay with MV-4-11 was 17 nM.

On to `Cc1cnc(Nc2ccc(N3CCN(C)CC3)nc2)nc1-c1cnc2ccc(-c3ccccc3)cn12` [Compound 50, 5-Methyl-N-(6-(4-methylpiperazin-1-yl)pyridin-3-yl)-4-(6-phenylimidazo[1,2-a]pyridin-3-yl)pyrimidin-2-amine], for which the remaining activity at 1 µM on CDK1/CyclinB amounted to 91%; at CDK7/CyclinH/Mat1 it was 51%; at CDK4/CyclinD1 it was 94%; on CDK2/CyclinA2, 90%; at CDK6/CyclinD3 it was 79%. Also, the pKi on FLT3-ITD was 6.68; on CDK9/CyclinT1, 6.39. For the same molecule, the GI50 in the assay on MV-4-11 turned out to be 813 nM.

`CS(=O)(=O)N1CCN(c2ccc(Nc3nccc(-c4cnc5ccc(-c6ccco6)cn45)n3)cn2)CC1` [Compound 51, 4-(6-(Furan-2-yl)imidazo[1,2-a]pyridin-3-yl)-N-(6-(4-(methylsulfonyl)piperazin-1-yl)pyridin-3-yl)pyrimidin-2-amine]: the remaining activity at 1 µM on CDK1/CyclinB worked out at 77%; at CDK7/CyclinH/Mat1, 80%; on CDK4/CyclinD1 it was 96%; on CDK2/CyclinA2 it was 85%; at CDK6/CyclinD3 it was 43%. In addition, the pKi at FLT3-ITD was under 6.30; on CDK9/CyclinT1, 6.54. Also, the GI50 in the assay on MV-4-11 was 17 nM.

In the case of `CC(C)N1CCN(c2ccc(Nc3nccc(-c4cnc5ccc(-c6ccsc6)cn45)n3)cn2)CC1` [Compound 54, N-(6-(4-Isopropylpiperazin-1-yl)pyridin-3-yl)-4-(6-(thiophen-3-yl)imidazo[1,2-a]pyridin-3-yl)pyrimidin-2-amine], the remaining activity at 1 µM amounted to 32% on CDK1/CyclinB, 29% on CDK7/CyclinH/Mat1, 48% at CDK4/CyclinD1 and 24% at CDK6/CyclinD3. Also, the pKi at FLT3-ITD was 7.96; at CDK2/CyclinA2 (Km ATP, read-out: Enzymatic inhibition, Ki, CDK2 A) it was 6.42; on CDK9/CyclinT1 it was 7.85. Moreover, in the assay with MV-4-11, the 50% growth inhibitory concentration (GI50) turned out to be 50 nM.

Take `c1ccc(-c2ccc3ncc(-c4ccnc(Nc5ccc(NC6CCOCC6)nc5)n4)n3c2)cc1` [Compound 58, N^5-(4-(6-Phenylimidazo[1,2-a]pyridin-3-yl)pyrimidin-2-yl)-N^2-(tetrahydro-2H-pyran-4-yl)pyridine-2,5-diamine]: the remaining activity at 1 µM on CDK1/CyclinB stood at 77%; on CDK7/CyclinH/Mat1, 73%; at CDK4/CyclinD1 it was 33%; at CDK2/CyclinA2, 73%; on CDK6/CyclinD3, 45%. In addition, the pKi on FLT3-ITD was 6.85; on CDK9/CyclinT1, 6.40. In addition, the GI50 in the assay with MV-4-11 came out at 28 nM.

For the molecule `CCS(=O)(=O)N1CCN(c2ccc(Nc3nccc(-c4cnc5ccc(Br)cn45)n3)cn2)CC1` [Compound 59, 4-(6-Bromoimidazo[1,2-a]pyridin-3-yl)-N-(6-(4-(ethylsulfonyl)piperazin-1-yl)pyridin-3-yl)pyrimidin-2-amine], the remaining activity at 1 µM at CDK1/CyclinB was found to be 70%; at CDK7/CyclinH/Mat1, 88%; at CDK4/CyclinD1, 52%; on CDK2/CyclinA2, 44%; on CDK6/CyclinD3, 49%. Moreover, the pKi at FLT3-ITD was 7.07; at CDK9/CyclinT1, 6.63. For the same molecule, in the assay on MV-4-11, the GI50 is 32 nM.

Take `CN(C)c1ccc(Nc2nccc(-c3cnc4ccc(Br)cn34)n2)cn1` [Compound 65, N^5-(4-(6-Bromoimidazo[1,2-a]pyridin-3-yl)pyrimidin-2-yl)-N^2,N^2-dimethylpyridine-2,5-diamine]: the remaining activity at 1 µM on CDK1/CyclinB turned out to be 56%; at CDK7/CyclinH/Mat1, 71%; on CDK4/CyclinD1, 86%; at CDK2/CyclinA2, 39%. Further, the negative logarithm of the Ki (pKi) on FLT3-ITD is 7.62; at CDK6/CyclinD3 (Km ATP, read-out: Enzymatic inhibition, Ki, CDK6 D3), 6.80; on CDK9/CyclinT1, 6.85. Moreover, the GI50 in the assay on MV-4-11 was 41 nM.

As to `O=C1NCCC12CCN(c1ccc(Nc3nccc(-c4cnc5ccc(-c6cnn(C(F)F)c6)cn45)n3)cn1)CC2` [Compound 73, 8-(5-((4-(6-(1-(Difluoromethyl)-1H-pyrazol-4-yl)imidazo[1,2-a]pyridin-3-yl)pyrimidin-2-yl)amino)pyridin-2-yl)-2,8-diazaspiro[4.5]decan-1-one], the remaining activity at 1 µM on CDK1/CyclinB was found to be 73%; at CDK7/CyclinH/Mat1 it was 83%; on CDK4/CyclinD1 it was 82%; at CDK2/CyclinA2 it was 80%; on CDK6/CyclinD3, 97%. Also, the pKi at FLT3-ITD was 6.94; on CDK9/CyclinT1, under 6.30. Besides, in the assay on MV-4-11, the 50% growth inhibitory concentration (GI50) stood at 14 nM.

Consider `CCCNc1ccc(Nc2nccc(-c3cnc4ccc(Br)cn34)n2)cn1` [Compound 74, N^5-(4-(6-Bromoimidazo[1,2-a]pyridin-3-yl)pyrimidin-2-yl)-N^2-propylpyridine-2,5-diamine], for which the remaining activity at 1 µM at CDK1/CyclinB amounted to 82%; at CDK7/CyclinH/Mat1, 78%; at CDK4/CyclinD1, 54%; at CDK2/CyclinA2 it was 41%; on CDK6/CyclinD3, 86%. The pKi is 7.40 on FLT3-ITD and 6.99 at CDK9/CyclinT1. The GI50 with MV-4-11 amounted to 20 nM.

As to `CCCNc1ccc(Nc2nccc(-c3cnc4ccc(-c5ccccc5)cn34)n2)cn1` [Compound 75, N^5-(4-(6-Phenylimidazo[1,2-a]pyridin-3-yl)pyrimidin-2-yl)-N^2-propylpyridine-2,5-diamine], the remaining activity at 1 µM at CDK1/CyclinB was determined as 89%; at CDK7/CyclinH/Mat1, 80%; at CDK4/CyclinD1, 89%; at CDK2/CyclinA2 it was 100%; on CDK6/CyclinD3, 93%. For the same molecule, the pKi on FLT3-ITD was 6.80; on CDK9/CyclinT1, 6.43. In addition, the GI50 with MV-4-11 is 78 nM.

One may read the pKi as the Ki on a negative log10 scale, so that one unit is a factor of ten. Broadly, the GI50 is the concentration at which growth is held to half of that of the control.
